Assay results from patent US11826324B2, “Pharmaceutical compositions for preventing or treating inflammatory disease, autoimmune disease, or combination thereof, and method for using same” (INDUSTRY-ACADEMIC COOPERATION FOUNDATION, YONSEI UNIVERSITY, priority 2017, dated 2023).

How the values were obtained:
[1] = tested on: TNF-α production in THP-1 cells; test: Inhibition of tumor necrosis factor-alpha production in THP-1 cell line (ELISA); format: cell-based, human; settings: for amount of TNF-α produced in THP-1 cells, Average: PMA 25 ng/ml 24 h, then LPS, 24 h, No Drug control 5250; for production of TNF-α in cells (THP-1), result in words: FIG. 2A and Table 1
Description: The human THP-1 cell line (ATCC) was prepared and cultured at a temperature of 37° C. and under 5% CO2.
Prepared THP-1 cells were inoculated onto a 96-well plate at the density of 1×10^5, and HL-156A, HL-156B, HL-156C, HL-156D, HL-156E, and HL-156F (all produced by Hanoi BioPharma Inc.) were added at the concentration of 1 μM or 10 μM to the cell culture solution. Thereafter, 25 ng/ml of phorbol 12-myristate 13-acetate (PMA, Sigma-Aldrich) was added to the cell culture solution, and cells were cultured for 24 hours, and then, lipopolysaccharide (LPS) was added thereto to induce an immune response of THP-1 cell. As a negative control, a group in which LPS was not added or a group in which
LPS was added but no drug was added, were used.
THP-1 cells were cultured for 24 hours, and then, the amount of tumor necrosis factor-alpha (TNF-α) in the culture solution by using TNF ELISA kit (Invitrogen) was measured.

[2] = tested on: TNF-α production in MH7A cells; test: Inhibition of tumor necrosis factor-alpha production in synoviocyte MH7A (ELISA); format: cell-based, human; settings: for amount of TNF-α in MH7A culture solution, Average: LPS, 24 h, control 1 (HL156A series), 3.53 (HL156B series); for production of TNF-α in the cells (MH7A), result in words: 0.1, 1, 10 μM, Table 2 and FIG. 2B
Description: Human synoviocyte cell line MH7A (provided by Prof. Kim Wan-wook of Catholic University) was prepared and cultured at a temperature of 37° C. and under 5% CO2.
The prepared MH7A cells were inoculated onto a 96-well plate at the density of 3×10^4 cells, and lipopolysaccharide (LPS) was added thereto to induce the immune response of MH7A cells. Then, HL-156A or HL-156B was added at a concentration of 0.1 μM, 1 μM, or 10 μM to the cell culture solution. As a negative control, a group in which LPS was used but no drug was used, was used.
After MH7A cells were cultured for 24 hours, the amount of TNF-α in the culture solution was measured by using a TNF-α ELISA kit (Peprotach).

[3] = tested on: virus-specific CD8+ T cell (GP33+CD8 T cell); parameters: species or system C57BL/6 mouse; settings: mouse, in vivo
[4] = tested on: CD4 T cell; test: Effect on T cell activation in vitro: proliferation of CD4 T cell (CTV, flow cytometry); format: cell-based, C57BL/6 mice; settings: T cells activated 3 days with anti-CD3/28 Dynabeads; HL-156A 5, 15, 45 or 135 μM and/or 20 nM rapamycin; FIG. 1A
From the text: (§1) The spleen was harvested from normal C57BL/6 mice (Orient Bio) and the mixture obtained by adding a RPMI solution containing 2% (v/v) fetal bovine serum (FBS) to the spleen tissues was homogenized by using a 40 μm strainer.
(§2) T cells were isolated from the homogenized spleen tissue by using CD90.2 magnetic beads (Miltenyi Biotec). Isolated T cells were labeled using CellTrace™ Violet (CTV). Subsequently, labeled T cells were activated for 3 days by using anti-CD3/28 Dynabeads®.
(§3) During T cells were activated, 5 μM, 15 μM, 45 μM, or 135 μM HL-156A (Hanoi BioPharma Inc.), and/or 20 nM rapamycin (LC Laboratories) were added to identify the effect of HL-156A, or the combination of HL-156A and rapamycin on the proliferation of T cells. […]
(§4) Activated T cells were immunostained by using allophycocyanin (APC)-labeled anti-CD4 antibody (BD Biosciences) and peridinin chlorophyll protein complex (PerCP)-labeled anti-CD8 antibody (eBioscience). Immunostained T cells were analyzed by flow cytometric analysis to identify the surface molecular phenotype thereof. From the results obtained by flow cytometric analysis, the proliferation ratio (%) of the T cell with respect to a material treated on the T cell was calculated, and the proliferation ratio (%) of CD4 T cell and the proliferation ratio (%) of CD8 T cell with respect to a compound are shown in FIGS. 1A and 1B, respectively.

[5] = tested on: collagen-induced arthritis mouse model; test: Collagen-induced arthritis mouse model, arthritis score; format: in vivo, DBA/1 mouse; settings: 60 mg/kg intraperitoneally once every two days; mice with average arthritis score of 8; FIG. 5
Description: Bovine Type II collagen was dissolved in complete freund's adjuvant (CFA) containing 250 μg per mouse of heat-sterilized Mycobacterium tuberculosis H37Ra (BD Sciences) to prepare a collagen solution.
DBA/1 mouse was immunized by intradermally injecting […] per mouse of the prepared collagen thereinto. On day 21 after the immunization, bovine Type II collagen dissolved in incomplete freund's adjuvant (IFA) was injected subcutaneously into the tail of a mouse in an amount of 100 μg to boost the immune system.
The arthritis score of mice was measured using the following criteria:
Grade 0: swelling or erythema;
Grade 1: mild swelling and erythema, inflammation of the toes;
Grade 2: moderate swelling and erythema confined to the distal to mid-limbs;
Grade 3: extended to the ankle, clear swelling and erythema; and
Grade 4: Severe swelling, erythema, and joint stiffness of ankle, foot, and toes.
A score of 0 to 4 was assigned to each leg, and a maximum of 16 points of arthritis scores were assigned to each mouse.
Mice with an average arthritis score of 8 were randomly selected. The HL-156A compound was diluted in PBS and administered to the selected mice intraperitoneally once every two days with 60 mg/kg body weight of HL-156A compound.

[6] = tested on: CD8 T cell; test: Effect on T cell activation in vitro: proliferation of CD8 T cell (CTV, flow cytometry); format: cell-based, C57BL/6 mice; settings: T cells activated 3 days with anti-CD3/28 Dynabeads; HL-156A 5, 15, 45 or 135 μM and/or 20 nM rapamycin; FIG. 1B
From the text: as §1, §2, §3, §4

SMILES	amount of TNF-α produced in THP-1 cells, Average ([1]; 1 μM compound)	amount of TNF-α produced in THP-1 cells, Average ([1]; 10 μM compound)	amount of TNF-α in MH7A culture solution, Average ([2]; 0.1 μM compound)	amount of TNF-α in MH7A culture solution, Average ([2]; 1 μM compound)	amount of TNF-α in MH7A culture solution, Average ([2]; 10 μM compound)	production of TNF-α in the cells (MH7A), result in words [2]	production of TNF-α in cells (THP-1), result in words [1]	differentiation of TCM cells and TEM cells in PBMCs [3]	proliferation of TEFF cells in PBMCs [3]	proliferation of CD4 T cell [4]	arthritis score over time [5]	proliferation of CD8 T cell [6]
N=C(NC(=N)N1CCCCC1)Nc1ccc(-c2nnn[nH]2)cc1 [HL-156D, N1-piperidine-N5-(4-(1H-tetrazole-5-yl))phenyl biguanide]	6125 pg/mL	5150 pg/mL	–	–	–	–	–	–	–	–	–	–
N=C(NC(=N)N1CCCC1)Nc1ccc(C(F)(F)F)cc1 [HL-156B, N1-pyrrolidine-N5-(4-trifluoromethyl)phenyl biguanide]	6125 pg/mL	2875 pg/mL	3.11	2.56	2.17	inhibited the production of TNF-α in a concentration-dependent manner	inhibited the production of TNF-α	–	–	–	–	–
N=C(NC(=N)N1CCCC1)Nc1ccc(Cl)c(Cl)c1 [HL-156E, N1-pyrrolidine-N5-(3,4-dichloro)phenyl biguanide]	4725 pg/mL	1925 pg/mL	–	–	–	–	inhibited the production of TNF-α	–	–	–	–	–
N=C(NC(=N)N1CCCC1)Nc1ccc(OC(F)(F)F)cc1 [HL-156A, N1-pyrrolidine-N5-(4-trifluoromethoxy)phenyl biguanide]	6750 pg/mL	3025 pg/mL	0.82	0.75	0.72	inhibited the production of TNF-α in a concentration-dependent manner	inhibited the production of TNF-α	inhibited	promoted	significantly inhibited	decreased the arthritis score over time	significantly inhibited
COc1cc(NC(=N)NC(=N)N2CCCCC2)cc(OC)c1 [HL-156F, N1-piperidine-N5-(3,5-dimethoxy)phenyl biguanide]	6425 pg/mL	4650 pg/mL	–	–	–	–	inhibited the production of TNF-α	–	–	–	–	–
N=C(NC(=N)N1CCCCC1)Nc1ccc(F)cc1 [HL-156C, N1-piperidine-N5-(4-fluoro)phenyl biguanide]	4825 pg/mL	6375 pg/mL	–	–	–	–	–	–	–	–	–	–
